What was measured:
[1] = test system: FXN mRNA; assay: Screen of library of eighty epigenetic inhibitors in GM03816 FRDA diseased fibroblasts, FXN mRNA fold change; type: cell-based, human; details: for fold induction at 1 µM / fold induction at 5 µM: Homo sapiens, Fibroblast, 72 h; for fold induction at 1 µM: read-out: 3816 1 uM (FXN mRNA fold change); for fold induction at 5 µM: read-out: 3816 5 uM (FXN mRNA fold change)
Method: FXN RNA levels are indicated on the y-axis and the inhibitors used at both 1 μM and 5 μM are shown on the x-axis.
A screen of a library of eighty epigenetic inhibitors (Cayman Chemical) was performed in GM03816 FRDA fibroblasts to identify epigenetic regulators that upregulate FXN expression.

[2] = test system: FXN mRNA; assay: Screen of epigenetic inhibitors in GM0321 normal fibroblasts, FXN RNA levels; type: cell-based, human; details: for fold induction at 1 µM / fold induction at 5 µM: Homo sapiens, Fibroblast, 72 h; for fold induction at 1 µM: read-out: FXN mRNA fold change, 321B 1 uM; for fold induction at 5 µM: read-out: FXN mRNA fold change, 321B 5 uM
[3] = GM03816 FRDA diseased fibroblasts, 1 uM inhibitor, 3 days of treatment
[4] = GM03816 FRDA diseased fibroblasts, 5 uM inhibitor, 3 days of treatment
[5] = GM0321 normal fibroblasts, 1 uM inhibitor, 3 days of treatment
[6] = GM0321 normal fibroblasts, 5 uM inhibitor, 3 days of treatment

| Compound | 3816 1 uM (FXN mRNA fold change) [1, 3] | 3816 5 uM (FXN mRNA fold change) [1, 4] | FXN mRNA fold change, 321B 1 uM [2, 5] | FXN mRNA fold change, 321B 5 uM [2, 6] | fold induction at 1 µM [2, 5] | fold induction at 5 µM [2, 6] | other results |
| --- | --- | --- | --- | --- | --- | --- | --- |
| Cl.N[C@@H]1C[C@H]1c1ccccc1 (racemic) [2-PCPA (hydrochloride)] | 1.058 | 0.8786 | 0.7149 | 0.7888 |  |  |  |
| O=C(O)c1cccc2ccccc12 [1-Naphthoic Acid] |  |  |  |  | 0.819 | 0.72 | fold induction at 1 µM [1, 3]: 1.05; fold induction at 5 µM [1, 4]: 0.869 |
| CCOC(=O)c1ccnc(C(=O)OCC)c1 [2,4-DPD] | 1.179 | 0.9456 | 0.877 | 0.7372 |  |  |  |
| O=C(O)c1ccnc(C(=O)O)c1 [2,4-Pyridinedicarboxylic Acid] |  |  |  |  | 0.458 | 0.645 | fold induction at 1 µM [1, 3]: 0.885; fold induction at 5 µM [1, 4]: 0.888 |
| Nc1nccc2c1ncn2C1C=C(CO)C(O)C1O (stereo not drawn) [3-Deazaneplanocin A] | 0.1514 | 0.2102 | 0.2641 | 0.1265 |  |  |  |
| NC(=O)c1cccc(N)c1 [3-amino Benzamide] | 1.289 | 1.357 | 1.089 | 1.365 |  |  |  |
| CC(C)[C@H](C(=O)Nc1ccc(C(=O)NO)cc1)c1ccccc1 [(S)-HDAC-42] | 0.2419 | 0.1894 |  | 0.6941 |  |  |  |
| CNCc1ccc(-c2[nH]c3cc(F)cc4c3c2CCNC4=O)cc1 [AG-014699] |  |  |  |  | 0.895 | 1 | fold induction at 1 µM [1, 3]: 1.06; fold induction at 5 µM [1, 4]: 0.892 |
| N#C/C(=C\c1ccc(-c2cc(Cl)ccc2Cl)o1)C(=O)Nc1cccc2ncccc12 [AGK2] | 1.206 | 1.101 | 1.115 | 1.053 |  |  |  |
| O=C(Nc1ccc2c(O)cc(S(=O)(=O)O)cc2c1)Nc1ccc2c(O)cc(S(=O)(=O)O)cc2c1 [AMI-1] | 0.5579 | 0.566 |  | 0.4073 |  |  |  |
| CCC(=O)CCCCC[C@@H]1NC(=O)[C@H]2CCCCN2C(=O)[C@H]([C@@H](C)CC)NC(=O)[C@H](Cc2cn(OC)c3ccccc23)NC1=O [Apicidin] |  |  |  |  |  |  | fold induction at 1 µM [1]: 0.0791; fold induction at 5 µM [1]: 0.435; fold induction at 1 µM [2]: 0.119; fold induction at 5 µM [2]: 0.397 |
| NC(=O)c1ccc(I)c([N+](=O)[O-])c1 [BSI-201] |  |  |  |  | 1.03 | 0.985 | fold induction at 1 µM [1, 3]: 1.13; fold induction at 5 µM [1, 4]: 0.844 |
| CN(C)c1ccc(C(=O)NCCCCCC(=O)NO)cc1 [CAY10398] | 0.6921 | 0.2339 | 0.5049 | 0.2106 |  |  |  |
| Nc1ccccc1NC(=O)CCCCCCC(=O)Nc1ccccc1 [CAY10433] | 0.8309 | 0.8827 | 1.03 | 0.7782 |  |  |  |
| Nc1ncn([C@H]2C[C@H](O)[C@@H](CO)O2)c(=O)n1 [Decitabine] |  |  |  |  | 1.15 | 1.53 |  |
| Nc1nc(OCc2cc(Br)cs2)c2[nH]cnc2n1 [Lomeguatrib] |  |  |  |  | 1.05 | 1.28 |  |
| CN(C)CCCCC(=O)Nc1ccc(NC(=S)NC(=O)c2ccc(C(C)(C)C)cc2)cc1 [Tenovin-6] |  |  | 1.23 | 1.282 |  |  |  |
| O=C(c1ccc(C(=O)N2CCC(N3CCCC3)CC2)c(Nc2ccccc2)c1)N1CCC(N2CCCC2)CC1 [UNC1215] | 0.6911 | 0.8743 |  |  |  |  |  |
| CC(=O)Nc1ccc(NC(=S)NC(=O)c2ccc(C(C)(C)C)cc2)cc1 [tenovin-1] |  |  | 1.444 |  |  |  |  |

— patent publication US20160201063A1, “EPIGENETIC REGULATORS OF FRATAXIN” (RANA THERAPEUTICS, INC., priority 2013, published 2016)
